# What was measured:
# [1] = Storage stability: loss of ability of aqueous solutions to generate carbon disulfide upon contact with strong acid; assay type: physicochemical; settings: aqueous solutions of tetrathiocarbonate salts, about 14 to about 16 percent by weight carbon disulfide equivalent, air-tight glass containers, 49° C.
# Description: Various tetrathiocarbonate salts are evaluated for storage stability by measuring the loss of the ability of aqueous solutions thereof to generate carbon disulfide upon contact with strong acid. Aqueous solutions of the salts listed in the following table, having an equivalent of from about 14 to about 16 percent by weight carbon disulfide, are stored in air-tight glass containers at a temperature of 49° C.
# [2] = test system: Fusarium oxysporum; experiment: Fungicidal test, radial growth of mycelia colonies; assay type: cell-based
# Description: (§1) Thiocarbonate solutions are used in a test of their fungicidal properties. Cultures of four plant pathogenic fungi are grown upon potato dextrose agar at room temperature, in diffuse natural lighting. After one week, square blocks having 2 millimeter sides are cut from the edges of actively growing mycelia spots on the agar.
# (§2) The blocks are immersed in sterile deionized water, as a control, or in dilutions of thiocarbonate solutions using the sterile water, in a closed container. Subsequently, the blocks are removed and placed upon agar in clean plates, and mycelia are allowed to grow for one week.
# (§3) Radial growth of mycelia colonies is measured for each of the six to eight replicate plates used for a particular fungus, and average colony radius is calculated. Percent control is defined by the following equation: Percent control =[1-((Average radius of treated plates)/(Average radius of control plates))]x100 [formula]
# (§4) Concentrations given for solutions used to treat the agar blocks are expressed in grams of thiocarbonate solution per liter of diluted solution.
# [3] = test system: Phytophthora cinnamomi; experiment: Fungicidal test, radial growth of mycelia colonies; assay type: cell-based
# Description: as §1, §2, §3, §4
# [4] = test system: Sclerotium rolfsii; experiment: Fungicidal test, radial growth of mycelia colonies; assay type: cell-based
# Description: as §1, §2, §3, §4
# [5] = test system: Verticillium dahliae; experiment: Fungicidal test, radial growth of mycelia colonies; assay type: cell-based
# Description: as §1, §2, §3, §4
# [6] = test system: root-knot nematode larvae (Meloidogyne incognita); experiment: Greenhouse nematocide experiment with tomato plants, soil drench, root gall count; assay type: in vivo; settings: 30 days; for Gall Counts, replicate 3: control 1; for Gall Counts, Mean: control 4.0; for Gall Counts, replicate 2: control 7; for Gall Counts, replicate 1: control 4
# Description: In the experiment, thirty containers are used, each containing about 500 grams of sterilized sandy loam soil. Each container contains one tomato plant. Each container is injected with four 5-milliliter portions of extract from nematode-infested pepper roots, one inch below the soil surface, producing an initial population of 2000 root-knot nematode larvae (Meloidogyne incognita) per container.
# Ten treatments are replicated three times, each treatment consisting of drenching the soil with a solution containing the fumigant to provide the dosage of CS2 given in the following table. The solutions are diluted with sufficient water to saturate the soil. The treatments include calcium tetrathiocarbonate, stabilized ammonium tetrathiocarbonate, and carbon disulfide at three levels, plus an untreated control. After drenching, each container is allowed to stand at ambient conditions. The plants are harvested after 30 days of growth, and soil is removed from the roots by a gentle washing with water. By use of a magnifying glass, the number of root galls is counted on each plant.
# Results are summarized below, wherein the "Application" represents milligrams of treatment per kilogram of soil, calculated as the thiocarbonate salt and the equivalent carbon disulfide. Gall counts are mean values from the three replicates.
# [7] = Effect of pH on production of CS2 from thiocarbonates in citrate-phosphate buffers, gas chromatography of air; assay type: physicochemical
# Description: Pure carbon disulfide is also injected, for comparison. A syringe is used to periodically sample air in the bottle, and the air is analyzed by gas chromatography.
# [8] = Decomposition in sandy loam soil at different moisture, CS2 in air space by gas chromatography; assay type: physicochemical; settings: hours to maximum CS2 concentration in the air space
# Description: A sandy loam soil is placed in 1-liter glass bottles, fitted with stoppers having fluorocarbon liners and silicone rubber septa, to give a soil depth of about 4 cm. […] Thiocarbonate solution or carbon disulfide is injected near the bottom of the soil layer, the bottles are promptly sealed, and the air space in the bottles is sampled at intervals with a syringe, for gas chromatographic analysis of CS2. Results are summarized below, wherein degradation time is the number of hours required to achieve the maximum CS2 concentration in the air space.
# [9] = test system: nematode larvae; experiment: In-vitro nematocidal test: larvae treated in aqueous suspension, injected into root zone of tomato plants, gall count; assay type: in vivo, Meloidogyne incognita; settings: larvae treated 1 hour; for Gall Count, replicate 2: control 88; for Gall Count, Mean: control 89; for Gall Count, replicate 1: control 90
# Description: The procedure of Example 2 is repeated except that potassium tetrathiocarbonate is substituted for stabilized ammonium tetrathiocarbonate and an in-vitro nematocidal test is used. In the in-vitro test, the nematode larvae are treated in aqueous suspension for 1 hour at the concentrations of fumigant given in the following table, washed twice with water, and injected into the active root zone of the tomato plants. After thirty days the roots are harvested, examined for galling, giving the results summarized below.
# [10] = 100 g/l thiocarbonate solution per liter of diluted solution
# [11] = highest application: 638/89 ppm ((NH4)2CS4·(NH4)2S), 730/91 (CaCS4), 97 ppm (CS2)
# [12] = lowest application: 213/30 ppm ((NH4)2CS4·(NH4)2S), 245/31 (CaCS4), 32 ppm (CS2)
# [13] = middle application: 425/60 ppm ((NH4)2CS4·(NH4)2S), 490/61 (CaCS4), 65 ppm (CS2)
# [14] = Soil Moisture 0 % of Saturation
# [15] = Soil Moisture 50 % of Saturation
# [16] = Soil Moisture 100 % of Saturation
# [17] = 50 ppm salt (6.3 ppm CS2 equiv. CaCS4; 6.5 ppm K2CS4)
# [18] = 100 ppm salt (12.5 ppm CS2 equiv. CaCS4; 13 ppm K2CS4)
# [19] = 150 ppm salt (18.8 ppm CS2 equiv. CaCS4; 19.5 ppm K2CS4)
# [20] = 1 g/l, listed as K2CS4 (9.43%CS2)
# [21] = 10 g/l, listed as K2CS4 (9.43%CS2)
compound,measurement,setting,value
"S=C(S)SS [NH4^+, ammonium tetrathiocarbonate]",Half-life (months),[1],0.17 months
"S=C(S)SS [Na2CS4 (10.6%CS2), sodium tetrathiocarbonate]",Half-life (months),[1]; listed as Na^+,3.0 months
same,Percent Control Fusarium oxysporum,[2]; 1 g/l,4%
same,Percent Control Fusarium oxysporum,[2]; 10 g/l,6%
same,Percent Control Fusarium oxysporum,[2]; [10],100%
same,Percent Control Phytophthora cinnamomi,[3]; 10 g/l,37%
same,inhibition of growth at 100000 µg/mL,"[3]; Phytophthora cinnamomi, 168 h, 100 g/l, read-out: Percent Control Phytophthora cinnamomi",100%
same,Percent Control Sclerotium rolfsii,[4]; 10 g/l,100%
same,inhibition of growth at 100000 µg/mL,"[4]; Agroathelia rolfsii, 168 h, 100 g/l, read-out: Percent Control Sclerotium rolfsii",100%
same,Percent Control Verticillium dahliae,[5]; 1 g/l,23%
same,inhibition of growth,"[5]; Verticillium dahliae, 168 h, 10 g/l, read-out: Percent Control Verticillium dahliae",26%
same,inhibition of growth at 100000 µg/mL,"[5]; Verticillium dahliae, 168 h, 100 g/l, read-out: Percent Control Verticillium dahliae",100%
stabilized ammonium tetrathiocarbonate [(NH4)2CS4·(NH4)2S],"Gall Counts, replicate 3",[6]; [11],2
same,"Gall Counts, Mean",[6]; [11],4.3
same,"Gall Counts, replicate 2",[6]; [11],5
same,"Gall Counts, replicate 1","[6]; highest application: 638 ppm salt/89 ppm Eq. CS2 ((NH4)2CS4·(NH4)2S), 730/91 (CaCS4), 97 ppm (CS2)",6
same,"Gall Counts, replicate 3",[6]; [12],3
same,"Gall Counts, Mean",[6]; [12],5.0
same,"Gall Counts, replicate 2",[6]; [12],7
same,"Gall Counts, replicate 1","[6]; lowest application: 213 ppm salt/30 ppm Eq. CS2 ((NH4)2CS4·(NH4)2S), 245/31 (CaCS4), 32 ppm (CS2)",5
same,"Gall Counts, replicate 3",[6]; [13],6
same,"Gall Counts, Mean",[6]; [13],10.0
same,"Gall Counts, replicate 2",[6]; [13],15
same,"Gall Counts, replicate 1","[6]; middle application: 425 ppm salt/60 ppm Eq. CS2 ((NH4)2CS4·(NH4)2S), 490/61 (CaCS4), 65 ppm (CS2)",9
same,Half-life (minutes) for production of carbon disulfide,"[7]; pH 5.2, 125 milligrams per liter of thiocarbonate ion",1 min
same,Half-life (minutes) for production of carbon disulfide,"[7]; pH 6.0, 125 milligrams per liter of thiocarbonate ion",1 min
same,Half-life (minutes) for production of carbon disulfide,"[7]; pH 7.0, 125 milligrams per liter of thiocarbonate ion",2.1 min
same,Half-life (minutes) for production of carbon disulfide,"[7]; pH 8.0, 125 milligrams per liter of thiocarbonate ion, CaCS4 values above pH 7 called unreliable",9.2 min
same,Half-life (minutes) for production of carbon disulfide,"[7]; pH 9.0, 125 milligrams per liter of thiocarbonate ion, CaCS4 values above pH 7 called unreliable",26.1 min
same,Percent Control Fusarium oxysporum,[2]; 1 g/l,70%
same,Percent Control Fusarium oxysporum,[2]; 10 g/l,100%
same,Percent Control Fusarium oxysporum,[2]; [10],100%
same,Percent Control Phytophthora cinnamomi,[3]; 1 g/l,97%
same,Percent Control Phytophthora cinnamomi,[3]; 10 g/l,74%
same,Percent Control Phytophthora cinnamomi,[3]; 100 g/l,100%
same,Percent Control Sclerotium rolfsii,[4]; 1 g/l,49%
same,Percent Control Sclerotium rolfsii,[4]; 10 g/l,93%
same,Percent Control Sclerotium rolfsii,[4]; 100 g/l,100%
same,Percent Control Verticillium dahliae,[5]; 1 g/l,41%
same,Percent Control Verticillium dahliae,[5]; 10 g/l,81%
same,Percent Control Verticillium dahliae,[5]; 100 g/l,91%
same,Degradation Time,[8]; [14],2 h
same,Degradation Time,[8]; [15],3 h
same,Degradation Time,[8]; [16],48 h
"S=C(S)SS [Formula K2CS4, potassium tetrathiocarbonate]","Gall Count, replicate 2",[9]; [17],66
same,"Gall Count, Mean",[9]; [17],49.5
same,"Gall Count, replicate 1",[9]; [17],33
same,"Gall Count, replicate 2",[9]; [18],145
same,"Gall Count, Mean",[9]; [18],171.5
same,"Gall Count, replicate 1",[9]; [18],198
same,"Gall Count, replicate 2",[9]; [19],22
same,"Gall Count, Mean",[9]; [19],35.5
same,"Gall Count, replicate 1",[9]; [19],49
same,Half-life (months),[1]; listed as K^+,2.9 months
same,Percent Control Fusarium oxysporum,[2]; [20],8%
same,Percent Control Fusarium oxysporum,[2]; [21],10%
same,Percent Control Fusarium oxysporum,"[2]; 100 g/l thiocarbonate solution per liter of diluted solution, listed as K2CS4 (9.43%CS2)",76%
same,Percent Control Phytophthora cinnamomi,[3]; [20],56%
same,Percent Control Phytophthora cinnamomi,[3]; [21],68%
same,Percent Control Phytophthora cinnamomi,[3]; 100 g/l,100%
same,Percent Control Sclerotium rolfsii,[4]; [20],42%
same,Percent Control Sclerotium rolfsii,[4]; [21],8%
same,Percent Control Sclerotium rolfsii,[4]; 100 g/l,100%
same,Percent Control Verticillium dahliae,[5]; [20],27%
same,Percent Control Verticillium dahliae,[5]; [21],15%
same,Percent Control Verticillium dahliae,[5]; 100 g/l,100%
same,Degradation Time,[8]; [14],2 h
same,Degradation Time,[8]; [15],5 h
same,Degradation Time,[8]; [16],48 h
